The text below walks through data of patent publication US8569344B2, “N-piperidinyl acetamide derivatives as calcium channel blockers” (Zalicus Pharmaceuticals Ltd., priority 2008, dated 2013).

Assay [1] concerns the target T1, human α1G T-type channels (Homo sapiens, UniProt O43497).
T1 construct: expressed in transfected cells; host or cells: HEK 293
As to the kind of experiment: T-type calcium channel block, whole cell patch clamp in HEK cells (α1G). Format: cell-based. The settings on record: HEK cells, patch clamp, mainly non-inactivated protocol; values above 10 μM shown as 10 μM, below 0.30 μM shown as 0.30 μM; read-out: T-type Calcium Channel Block α1G IC50. For orientation: In patch-clamp work, channel activity is measured electrically.

Assay [2] has as its target T2, human α1H T-type channels (Homo sapiens, UniProt O95180).
T2 construct: expressed in transfected cells; host or cells: HEK 293
As to the kind of experiment: T-type calcium channel block, whole cell patch clamp in HEK cells (α1H). The format is cell-based. The conditions noted are these: HEK cells, patch clamp, mainly non-inactivated protocol; values above 10 μM shown as 10 μM; read-out: T-type Calcium Channel Block α1H IC50.

T1 sequence (O43497 whole entry): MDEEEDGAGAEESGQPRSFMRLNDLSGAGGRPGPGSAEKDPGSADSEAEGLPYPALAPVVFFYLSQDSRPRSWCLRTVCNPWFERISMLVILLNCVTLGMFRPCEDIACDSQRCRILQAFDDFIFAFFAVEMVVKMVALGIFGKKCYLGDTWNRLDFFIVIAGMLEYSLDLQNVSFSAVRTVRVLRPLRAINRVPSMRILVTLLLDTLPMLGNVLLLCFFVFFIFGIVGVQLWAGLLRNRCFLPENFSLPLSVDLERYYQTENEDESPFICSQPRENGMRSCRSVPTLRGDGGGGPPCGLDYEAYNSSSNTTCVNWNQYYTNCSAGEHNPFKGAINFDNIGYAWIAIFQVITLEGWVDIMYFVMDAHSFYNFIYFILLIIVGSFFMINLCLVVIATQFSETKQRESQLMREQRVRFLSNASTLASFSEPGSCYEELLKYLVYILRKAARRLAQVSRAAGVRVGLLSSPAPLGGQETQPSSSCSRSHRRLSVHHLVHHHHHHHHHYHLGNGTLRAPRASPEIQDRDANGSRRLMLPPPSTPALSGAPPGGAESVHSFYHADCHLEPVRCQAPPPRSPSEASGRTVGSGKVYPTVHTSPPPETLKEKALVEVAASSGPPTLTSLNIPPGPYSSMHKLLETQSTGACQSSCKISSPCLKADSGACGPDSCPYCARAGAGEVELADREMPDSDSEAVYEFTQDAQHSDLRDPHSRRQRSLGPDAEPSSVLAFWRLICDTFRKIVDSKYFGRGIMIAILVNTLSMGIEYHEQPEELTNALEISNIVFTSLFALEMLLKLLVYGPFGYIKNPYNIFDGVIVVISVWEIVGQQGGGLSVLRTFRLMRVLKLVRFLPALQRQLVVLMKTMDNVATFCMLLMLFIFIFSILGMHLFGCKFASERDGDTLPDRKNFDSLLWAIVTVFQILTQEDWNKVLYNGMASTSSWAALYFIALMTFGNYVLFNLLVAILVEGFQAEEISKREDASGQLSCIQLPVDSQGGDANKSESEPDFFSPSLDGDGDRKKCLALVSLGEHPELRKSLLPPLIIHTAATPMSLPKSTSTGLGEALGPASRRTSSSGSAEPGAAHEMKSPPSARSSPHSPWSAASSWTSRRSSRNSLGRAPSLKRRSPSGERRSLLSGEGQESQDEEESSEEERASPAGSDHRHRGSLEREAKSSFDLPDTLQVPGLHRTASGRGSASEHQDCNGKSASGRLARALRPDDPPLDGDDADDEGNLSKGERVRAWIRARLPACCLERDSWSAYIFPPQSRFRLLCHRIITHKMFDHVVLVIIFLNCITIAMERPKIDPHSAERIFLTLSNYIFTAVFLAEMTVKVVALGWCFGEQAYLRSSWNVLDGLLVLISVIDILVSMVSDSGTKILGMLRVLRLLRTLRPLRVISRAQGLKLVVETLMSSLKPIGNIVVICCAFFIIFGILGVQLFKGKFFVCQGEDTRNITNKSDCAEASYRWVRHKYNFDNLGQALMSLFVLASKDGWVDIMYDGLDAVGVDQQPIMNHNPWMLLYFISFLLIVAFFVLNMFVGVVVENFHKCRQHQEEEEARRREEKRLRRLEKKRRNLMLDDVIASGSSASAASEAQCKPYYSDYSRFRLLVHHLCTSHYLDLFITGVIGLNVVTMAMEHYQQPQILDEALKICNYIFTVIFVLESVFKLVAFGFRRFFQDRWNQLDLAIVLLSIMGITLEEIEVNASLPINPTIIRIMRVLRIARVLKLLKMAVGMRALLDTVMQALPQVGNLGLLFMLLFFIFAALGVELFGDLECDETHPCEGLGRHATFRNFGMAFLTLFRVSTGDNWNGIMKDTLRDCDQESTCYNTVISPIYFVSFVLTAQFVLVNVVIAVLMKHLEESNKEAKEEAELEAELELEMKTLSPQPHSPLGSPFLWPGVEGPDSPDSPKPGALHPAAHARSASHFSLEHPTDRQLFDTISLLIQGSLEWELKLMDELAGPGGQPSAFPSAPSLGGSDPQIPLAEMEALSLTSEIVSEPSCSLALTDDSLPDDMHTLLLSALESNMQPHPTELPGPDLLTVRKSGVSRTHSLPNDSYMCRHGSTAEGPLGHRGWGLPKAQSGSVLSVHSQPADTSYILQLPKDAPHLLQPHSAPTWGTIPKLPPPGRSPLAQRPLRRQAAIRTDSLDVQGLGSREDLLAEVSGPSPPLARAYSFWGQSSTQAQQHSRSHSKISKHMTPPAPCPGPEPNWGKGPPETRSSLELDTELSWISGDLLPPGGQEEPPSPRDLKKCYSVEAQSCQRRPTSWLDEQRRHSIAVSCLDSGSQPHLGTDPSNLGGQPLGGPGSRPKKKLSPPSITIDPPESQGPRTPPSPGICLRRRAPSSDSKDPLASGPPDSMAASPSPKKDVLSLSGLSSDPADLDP
T2 sequence (O95180 whole entry): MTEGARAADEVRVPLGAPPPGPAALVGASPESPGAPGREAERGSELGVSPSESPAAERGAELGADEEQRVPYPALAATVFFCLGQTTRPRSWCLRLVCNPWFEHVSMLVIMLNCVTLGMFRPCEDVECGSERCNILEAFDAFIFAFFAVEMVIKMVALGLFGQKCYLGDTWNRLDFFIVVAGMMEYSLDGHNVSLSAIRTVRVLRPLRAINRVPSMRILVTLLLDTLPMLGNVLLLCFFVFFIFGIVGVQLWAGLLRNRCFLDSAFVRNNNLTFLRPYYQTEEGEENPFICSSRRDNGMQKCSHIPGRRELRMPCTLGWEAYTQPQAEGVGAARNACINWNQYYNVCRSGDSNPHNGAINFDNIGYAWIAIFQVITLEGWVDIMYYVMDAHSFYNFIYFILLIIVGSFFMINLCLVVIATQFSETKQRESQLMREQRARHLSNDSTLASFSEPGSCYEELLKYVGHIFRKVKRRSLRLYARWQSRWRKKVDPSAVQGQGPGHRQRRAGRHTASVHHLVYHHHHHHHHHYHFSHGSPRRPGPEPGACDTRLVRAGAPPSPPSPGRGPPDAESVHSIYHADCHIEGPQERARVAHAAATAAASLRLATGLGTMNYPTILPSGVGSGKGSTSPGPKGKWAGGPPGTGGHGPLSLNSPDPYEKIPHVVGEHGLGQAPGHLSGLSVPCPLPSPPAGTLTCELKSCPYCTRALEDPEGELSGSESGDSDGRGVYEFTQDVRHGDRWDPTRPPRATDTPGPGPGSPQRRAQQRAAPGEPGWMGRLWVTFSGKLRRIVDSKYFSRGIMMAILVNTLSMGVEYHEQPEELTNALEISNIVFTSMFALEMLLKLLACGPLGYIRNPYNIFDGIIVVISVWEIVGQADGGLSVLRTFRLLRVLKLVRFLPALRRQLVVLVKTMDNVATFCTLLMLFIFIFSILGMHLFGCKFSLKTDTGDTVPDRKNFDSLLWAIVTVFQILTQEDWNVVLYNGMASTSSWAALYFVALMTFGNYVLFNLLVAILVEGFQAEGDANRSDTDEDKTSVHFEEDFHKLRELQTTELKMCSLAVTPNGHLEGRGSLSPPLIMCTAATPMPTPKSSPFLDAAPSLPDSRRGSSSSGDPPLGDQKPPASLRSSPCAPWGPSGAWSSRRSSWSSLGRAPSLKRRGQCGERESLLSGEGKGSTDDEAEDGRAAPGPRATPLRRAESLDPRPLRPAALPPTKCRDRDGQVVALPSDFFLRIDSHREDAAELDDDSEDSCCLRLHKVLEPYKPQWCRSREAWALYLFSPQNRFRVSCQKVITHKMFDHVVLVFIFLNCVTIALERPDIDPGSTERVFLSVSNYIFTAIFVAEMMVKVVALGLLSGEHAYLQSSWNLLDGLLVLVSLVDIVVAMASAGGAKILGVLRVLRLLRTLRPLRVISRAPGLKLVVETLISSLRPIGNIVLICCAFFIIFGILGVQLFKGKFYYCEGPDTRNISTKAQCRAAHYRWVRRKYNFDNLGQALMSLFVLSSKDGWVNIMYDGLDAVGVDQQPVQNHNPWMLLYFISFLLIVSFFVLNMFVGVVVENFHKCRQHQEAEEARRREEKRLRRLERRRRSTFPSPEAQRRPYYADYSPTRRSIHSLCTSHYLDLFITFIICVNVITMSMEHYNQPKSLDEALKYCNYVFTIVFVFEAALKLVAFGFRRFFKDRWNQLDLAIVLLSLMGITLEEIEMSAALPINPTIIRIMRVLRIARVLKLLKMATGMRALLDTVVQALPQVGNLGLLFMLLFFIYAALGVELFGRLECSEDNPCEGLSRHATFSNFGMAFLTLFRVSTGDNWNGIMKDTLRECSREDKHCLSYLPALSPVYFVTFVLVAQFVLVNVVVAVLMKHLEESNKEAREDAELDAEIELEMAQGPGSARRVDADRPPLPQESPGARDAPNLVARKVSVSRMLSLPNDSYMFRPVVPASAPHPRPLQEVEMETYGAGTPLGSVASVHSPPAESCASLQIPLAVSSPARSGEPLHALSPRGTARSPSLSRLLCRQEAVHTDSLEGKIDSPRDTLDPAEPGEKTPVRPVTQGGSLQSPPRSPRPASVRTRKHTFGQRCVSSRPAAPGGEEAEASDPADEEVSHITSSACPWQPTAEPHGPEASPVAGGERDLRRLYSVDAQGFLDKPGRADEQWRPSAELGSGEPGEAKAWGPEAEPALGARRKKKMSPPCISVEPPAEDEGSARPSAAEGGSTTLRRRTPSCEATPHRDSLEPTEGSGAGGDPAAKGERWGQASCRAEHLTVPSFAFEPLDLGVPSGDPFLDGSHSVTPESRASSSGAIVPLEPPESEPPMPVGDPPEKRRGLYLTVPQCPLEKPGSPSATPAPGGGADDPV

As a reminder, the IC50 is the concentration that gives 50% inhibition. Take `Cc1cc(C)cc(C(=O)NCC2CCN(CC(=O)NC(C)C)CC2)c1` [Compound 436, N-((1-(2-(isopropylamino)-2-oxoethyl)piperidin-4-yl)methyl)-3,5-dimethylbenzamide]: the IC50 in assay [1] and in assay [2] was above 10 µM each time.

In the case of `Cc1cc(F)cc(C(=O)NCC2CCN(CC(=O)NC(C)C)CC2)c1` [Compound 437, 3-fluoro-N-((1-(2-(isopropylamino)-2-oxoethyl)piperidin-4-yl)methyl)-5-methylbenzamide], the IC50 in assay [1] and in assay [2] was above 10 µM in each case.

As for `COc1cc(F)cc(C(=O)NCC2CCN(CC(=O)NC(C)C)CC2)c1` [Compound 438, 3-fluoro-N-((1-(2-(isopropylamino)-2-oxoethyl)piperidin-4-yl)methyl)-5-methoxybenzamide], the IC50 in assay [1] was 3.91 µM; in assay [2] it was 1.71 µM.

With `COc1cc(OC)cc(C(=O)NCC2CCN(CC(=O)NC(C)C)CC2)c1` [Compound 439, N-((1-(2-(isopropylamino)-2-oxoethyl)piperidin-4-yl)methyl)-3,5-dimethoxybenzamide], the figures for the IC50 in assay [1] and in assay [2] were 3.28 µM and 2.17 µM, respectively.

In the case of `CC(C)NC(=O)CN1CCC(CNC(=O)c2cccc(C(F)(F)F)c2)CC1` [Compound 440, N-((1-(2-(isopropylamino)-2-oxoethyl)piperidin-4-yl)methyl)-3-(trifluoromethyl)benzamide], the half-maximal inhibitory concentration (IC50) in assay [1] and in assay [2] was above 10 µM throughout.

With `CC(C)NC(=O)CN1CCC(CNC(=O)c2cccc(Br)c2)CC1` [Compound 441, 3-bromo-N-((1-(2-(isopropylamino)-2-oxoethyl)piperidin-4-yl)methyl)benzamide], the half-inhibitory concentration (IC50) is 9.48 µM in assay [1] and above 10 µM in assay [2].

For `CC(C)NC(=O)CN1CCC(CNC(=O)c2cccc(Cl)c2)CC1` [Compound 442, 3-chloro-N-((1-(2-(isopropylamino)-2-oxoethyl)piperidin-4-yl)methyl)benzamide], the 50% inhibitory concentration (IC50) in assay [1] and in assay [2] was above 10 µM each time.

In the case of `CC(C)NC(=O)CN1CCC(CNC(=O)c2cc(F)cc(Cl)c2)CC1` [Compound 443, 3-chloro-5-fluoro-N-((1-(2-(isopropyl-amino)-2-oxoethyl)piperidin-4-yl)methyl)benzamide], the half-inhibitory concentration (IC50) amounted to 3.31 µM in assay [1] and 2.81 µM in assay [2].

In the case of `CC(C)NC(=O)CN1CCC(CNC(=O)c2cccc(OC(F)(F)F)c2)CC1` [Compound 444, N-((1-(2-(isopropylamino)-2-oxoethyl)piperidin-4-yl)methyl)-3-(trifluoromethoxy)benzamide], the concentration for half-maximal inhibition (IC50) was 7.4 µM in assay [1] and above 10 µM in assay [2].

For `CCCNC(=O)CN1CCC(CNC(=O)c2cc(C)cc(C)c2)CC1` [Compound 445, 3,5-dimethyl-N-((1-(2-oxo-2-(propylamino)ethyl)piperidin-4-yl)methyl)benzamide], the IC50 in assay [1] and in assay [2] was above 10 µM throughout.

For the molecule `CCCNC(=O)CN1CCC(CNC(=O)c2cc(C)cc(F)c2)CC1` [Compound 446, 3-fluoro-5-methyl-N-((1-(2-oxo-2-(propylamino)ethyl)piperidin-4-yl)methyl)benzamide], the half-maximal inhibitory concentration (IC50) in assay [1] and in assay [2] was above 10 µM throughout.

With `CCCNC(=O)CN1CCC(CNC(=O)c2cc(F)cc(OC)c2)CC1` [Compound 447, 3-fluoro-5-methoxy-N-((1-(2-oxo-2-(propylamino)ethyl)piperidin-4-yl)methyl)benzamide], the half-inhibitory concentration (IC50) in assay [1] is 9.15 µM; in assay [2], 3.08 µM.

On to `CCCNC(=O)CN1CCC(CNC(=O)c2cc(OC)cc(OC)c2)CC1` [Compound 448, 3,5-dimethoxy-N-((1-(2-oxo-2-(propylamino)ethyl)piperidin-4-yl)methyl)benzamide], for which the 50% inhibitory concentration (IC50) in assay [1] worked out at 9.73 µM; in assay [2] it was 4.64 µM.

For the molecule `CCCNC(=O)CN1CCC(CNC(=O)c2cccc(C(F)(F)F)c2)CC1` [Compound 449, N-((1-(2-oxo-2-(propylamino)ethyl)piperidin-4-yl)methyl)-3-(trifluoromethyl)benzamide], the half-maximal inhibitory concentration (IC50) in assay [1] and in assay [2] was above 10 µM in each case.

On to `CCCNC(=O)CN1CCC(CNC(=O)c2cccc(Br)c2)CC1` [Compound 450, 3-bromo-N-((1-(2-oxo-2-(propylamino)ethyl)piperidin-4-yl)methyl)benzamide], for which the concentration for half-maximal inhibition (IC50) in assay [1] is 8.88 µM; in assay [2], above 10 µM.

Turning to `CCCNC(=O)CN1CCC(CNC(=O)c2cccc(Cl)c2)CC1` [Compound 451, 3-chloro-N-((1-(2-oxo-2-(propylamino)ethyl)piperidin-4-yl)methyl)benzamide], the half-inhibitory concentration (IC50) in assay [1] and in assay [2] was above 10 µM each time.

Consider `CCCNC(=O)CN1CCC(CNC(=O)c2cc(F)cc(Cl)c2)CC1` [Compound 452, 3-chloro-5-fluoro-N-((1-(2-oxo-2-(propylamino)ethyl)piperidin-4-yl)methyl)benzamide], for which the figures for the IC50 in assay [1] and in assay [2] were 4.24 µM and 7.92 µM, respectively.

Take `CCCNC(=O)CN1CCC(CNC(=O)c2cccc(OC(F)(F)F)c2)CC1` [Compound 453, N-((1-(2-oxo-2-(proyplamino)ethyl)piperidin-4-yl)methyl)-3-(trifluoromethoxy)benzamide]: the values for the IC50 in assay [1] and in assay [2] were 8.24 µM and above 10 µM, respectively.

Regarding `Cc1cc(C)cc(C(=O)NCC2CCN(CC(=O)NC(C)(C)C(F)(F)F)CC2)c1` [Compound 454, 3,5-dimethyl-N-((1-(2-oxo-2-(1,1,1-trifluoro-2-methylpropan-2-ylamino)ethyl)piperidin-4-yl)methyl)benzamide], the 50% inhibitory concentration (IC50) is below 0.3 µM in assay [1] and 0.04 µM in assay [2].

`Cc1cc(F)cc(C(=O)NCC2CCN(CC(=O)NC(C)(C)C(F)(F)F)CC2)c1` [Compound 455, 3-fluoro-5-methyl-N-((1-(2-oxo-2-(1,1,1-trifluoro-2-methylpropan-2-ylamino)ethyl)piperidin-4-yl)methyl)benzamide]: the half-maximal inhibitory concentration (IC50) in assay [1] was below 0.3 µM; in assay [2] it was 0.03 µM.

`COc1cc(F)cc(C(=O)NCC2CCN(CC(=O)NC(C)(C)C(F)(F)F)CC2)c1` [Compound 456, 3-fluoro-5-methoxy-N-((1-(2-oxo-2-(1,1,1-trifluoro-2-methylpropan-2-ylamino)ethyl)piperidin-4-yl)methyl)benzamide]: the IC50 in assay [1] is below 0.3 µM; in assay [2], 0.02 µM.

With `CC(C)(NC(=O)CN1CCC(CNC(=O)c2cccc(C(F)(F)F)c2)CC1)C(F)(F)F` [Compound 458, N-((1-(2-oxo-2-(1,1,1-trifluoro-2-methylpropan-2-ylamino)ethyl)piperidin-4-yl)methyl)-3-(trifluoromethyl)benzamide], the IC50 in assay [1] is below 0.3 µM; in assay [2], 0.04 µM.

With `CC(C)(NC(=O)CN1CCC(CNC(=O)c2cccc(Br)c2)CC1)C(F)(F)F` [Compound 459, 3-bromo-N-((1-(2-oxo-2-(1,1,1-trifluoro-2-methylpropan-2-ylamino)ethyl)piperidin-4-yl)methyl)benzamide], the IC50 in assay [1] was below 0.3 µM; in assay [2] it was 0.02 µM.

As to `Cc1cc(C)cc(C(=O)NCC2CCN(CC(=O)N3CCC[C@H]3C(F)(F)F)CC2)c1` [Compound 463, (S)-3,5-dimethyl-N-((1-(2-oxo-2-(2-(trifluoromethyl)pyrrolidin-1-yl)ethyl)piperidin-4-yl)methyl) benzamide], the results for the IC50 in assay [1] and in assay [2] were below 0.3 µM and 0.21 µM, respectively.

Consider `Cc1cc(F)cc(C(=O)NCC2CCN(CC(=O)N3CCC[C@H]3C(F)(F)F)CC2)c1` [Compound 464, (S)-3-fluoro-5-methyl-N-((1-(2-oxo-2-(2-(trifluoromethyl)pyrrolidin-1-yl)ethyl)piperidin-4-yl)methyl)benzamide], for which the results for the IC50 in assay [1] and in assay [2] were below 0.3 µM and 0.14 µM, respectively.

Consider `COc1cc(F)cc(C(=O)NCC2CCN(CC(=O)N3CCC[C@H]3C(F)(F)F)CC2)c1` [Compound 465, (S)-3-fluoro-5-methoxy-N-((1-(2-oxo-2-(2-(trifluoromethyl)pyrrolidin-1-yl)ethyl)piperidin-4-yl)methyl)benzamide], for which the IC50 in assay [1] is below 0.3 µM; in assay [2], 0.17 µM.

For `COc1cc(OC)cc(C(=O)NCC2CCN(CC(=O)N3CCC[C@H]3C(F)(F)F)CC2)c1` [Compound 466, (S)-3,5-dimethoxy-N-((1-(2-oxo-2-(2-(trifluoromethyl)pyrrolidin-1-yl)ethyl)piperidin-4-yl)methyl)benzamide], the half-inhibitory concentration (IC50) in assay [1] was below 0.3 µM; in assay [2], 0.27 µM.

As for `O=C(NCC1CCN(CC(=O)N2CCC[C@H]2C(F)(F)F)CC1)c1cccc(C(F)(F)F)c1` [Compound 467, (S)-N-((1-(2-oxo-2-(2-(trifluoromethyl)pyrrolidin-1-yl)ethyl)piperidin-4-yl)methyl)-3-(trifluoromethyl)benzamide], the concentration for half-maximal inhibition (IC50) was below 0.3 µM in assay [1] and 0.17 µM in assay [2].

Take `O=C(NCC1CCN(CCNC(=O)C2(C(F)(F)F)CC2)CC1)c1cccc(OC(F)(F)F)c1` [Compound 474, 3-(trifluoromethoxy)-N-((1-(2-(1-(trifluoromethyl)cyclopropanecarbox-amido)ethyl)piperidin-4-yl)methyl) benzamide]: the figures for the half-maximal inhibitory concentration (IC50) in assay [1] and in assay [2] were below 0.3 µM and 0.04 µM, respectively.

On to `Cc1cc(C)cc(C(=O)NCC2CCN(CC(=O)NC3(C)CCC3)CC2)c1` [Compound 475, 3,5-dimethyl-N-((1-(2-(1-methylcyclobutylamino)-2-oxoethyl)piperidin-4-yl)methyl) benzamide], for which the values for the IC50 in assay [1] and in assay [2] were below 0.3 µM and 0.17 µM, respectively.

Take `CC1(NC(=O)CN2CCC(CNC(=O)c3cccc(C(F)(F)F)c3)CC2)CCC1` [Compound 479, N-((1-(2-(1-methylcyclobutylamino)-2-oxoethyl)piperidin-4-yl)methyl)-3-(trifluoromethyl)benzamide]: the IC50 is below 0.3 µM in assay [1] and 0.15 µM in assay [2].
